# What was measured:
# HUVEC [1] = experiment: Inhibition of HMGB1-induced hyperpermeability of Evans blue-bound albumin in human HUVEC at 10 uM after 6 hrs by spectrophotometric analysis relative to control; format: functional
# Mus musculus [2] = experiment: Antiinflammatory activity in mouse assessed as inhibition of HMGB1-induced hyperpermeability of Evans blue dye to peritoneal cavity at 342.4 ug/kg administered 16 hrs after HMGB1 challenge measured after 6 hrs; format: functional
# Mus musculus [3] = experiment: Antiinflammatory activity in mouse assessed as inhibition of HMGB1-induced leukocyte migration into peritoneal cavity at 342.4 ug/kg administered 16 hrs after HMGB1 challenge measured after 6 hrs by light microscopic analysis; format: functional
# HUVEC [4] = experiment: Cytotoxicity against human HUVEC assessed as cell viability up to 20 uM after 24 hrs; format: cell-based
# HUVEC [5] = experiment: Antiinflammatory activity in human HUVEC assessed as inhibition of HMGB1-induced human neutrophils migration into cells at 10 uM after 6 hrs using crystal violet staining; format: functional
# Mus musculus [6] = experiment: Antiinflammatory activity in mouse assessed as inhibition of HMGB1-induced leukocyte migration into peritoneal cavity at 372.4 ug/kg administered 16 hrs after HMGB1 challenge measured after 6 hrs by light microscopic analysis; format: functional
# Mus musculus [7] = experiment: Antiinflammatory activity in mouse assessed as inhibition of HMGB1-induced hyperpermeability of Evans blue dye to peritoneal cavity at 372.4 ug/kg administered 16 hrs after HMGB1 challenge measured after 6 hrs; format: functional
# Mus musculus [8] = experiment: Antiinflammatory activity in mouse assessed as inhibition of HMGB1-induced hyperpermeability of Evans blue dye to peritoneal cavity at 402.4 ug/kg administered 16 hrs after HMGB1 challenge measured after 6 hrs; format: functional
# Mus musculus [9] = experiment: Antiinflammatory activity in mouse assessed as inhibition of HMGB1-induced leukocyte migration into peritoneal cavity at 402.4 ug/kg administered 16 hrs after HMGB1 challenge measured after 6 hrs by light microscopic analysis; format: functional
# Mus musculus [10] = experiment: Antiinflammatory activity in mouse assessed as inhibition of HMGB1-induced leukocyte migration into peritoneal cavity at 403.4 ug/kg administered 16 hrs after HMGB1 challenge measured after 6 hrs by light microscopic analysis; format: functional
# Mus musculus [11] = experiment: Antiinflammatory activity in mouse assessed as inhibition of HMGB1-induced hyperpermeability of Evans blue dye to peritoneal cavity at 403.4 ug/kg administered 16 hrs after HMGB1 challenge measured after 6 hrs; format: functional
compound,measurement,setting,value
COc1ccc(/C=C/C(=O)Nc2ccc3[nH]c4ccccc4c3c2)cc1,inhibition at 10 µM,HUVEC [1],3.6%
same,inhibition in vivo at 0.3424 mg/kg,Mus musculus [2],1.4%
same,inhibition in vivo at 0.3424 mg/kg,Mus musculus [3],0.8%
same,Activity,HUVEC [4],Non-toxic
same,inhibition at 10 µM,HUVEC [5],4.8%
COc1ccc(/C=C/C(=O)Nc2ccc3[nH]c4ccccc4c3c2)cc1OC,inhibition in vivo at 0.3724 mg/kg,Mus musculus [6],39%
same,inhibition in vivo at 0.3724 mg/kg,Mus musculus [7],26.2%
same,inhibition at 10 µM,HUVEC [1],42.9%
same,Activity,HUVEC [4],Non-toxic
same,inhibition at 10 µM,HUVEC [5],43.5%
COc1cc(/C=C/C(=O)Nc2ccc3[nH]c4ccccc4c3c2)cc(OC)c1OC,inhibition at 10 µM,HUVEC [1],68.4%
same,inhibition in vivo at 0.4024 mg/kg,Mus musculus [8],57.5%
same,Activity,HUVEC [4],Non-toxic
same,inhibition at 10 µM,HUVEC [5],62%
same,inhibition in vivo at 0.4024 mg/kg,Mus musculus [9],60.3%
COc1cc(/C=C/C(=O)Oc2ccc3[nH]c4ccccc4c3c2)cc(OC)c1OC,inhibition in vivo at 0.4034 mg/kg,Mus musculus [10],61.2%
same,inhibition in vivo at 0.4034 mg/kg,Mus musculus [11],58.9%
same,inhibition at 10 µM,HUVEC [1],70.2%
same,Activity,HUVEC [4],Non-toxic
same,inhibition at 10 µM,HUVEC [5],65.4%
